# Data: patent US10988459B2 (priority 2015, dated 2021)
# pKi: −log10 of the molar value.
# Biological target: human RIP1 kinase domain (2-375) (Homo sapiens (Human), UniProt Q13546)
# Assay: biochemical
# Type: biochemical
# Details: Table 1; apparent Ki (Morrison tight-binding fit); 50 nM RIP1 kinase domain, 50 uM ATP, 2 hours incubation; read-out: RIP1 Ki
# Summary of the method: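 Ki^app comes from Morrison tight-binding fits of fractional activity versus compound concentration. Activity was read as ADP production, via tracer displacement lowering fluorescence polarization (633 nm laser). Conditions: 2 h, 50 nM insect-cell-expressed enzyme, 50 uM ATP, 30 mM MgCl2, 1 mM DTT, 0.5% DMSO, pH 7.5 Hepes.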
# human RIP1 kinase domain (2-375), sequence (Q13546 2-375): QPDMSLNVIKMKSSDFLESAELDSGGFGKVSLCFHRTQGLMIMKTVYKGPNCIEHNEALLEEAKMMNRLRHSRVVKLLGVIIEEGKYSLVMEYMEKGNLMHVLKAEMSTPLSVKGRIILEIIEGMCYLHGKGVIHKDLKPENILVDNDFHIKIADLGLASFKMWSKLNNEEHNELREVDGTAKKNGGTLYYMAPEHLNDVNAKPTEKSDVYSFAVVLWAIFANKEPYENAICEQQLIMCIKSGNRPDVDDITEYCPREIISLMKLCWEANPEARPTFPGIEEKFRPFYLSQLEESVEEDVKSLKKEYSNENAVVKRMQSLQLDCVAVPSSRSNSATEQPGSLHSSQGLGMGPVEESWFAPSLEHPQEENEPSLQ
row,SMILES,pKi
1,"CN1C(=O)[C@@H](NC(=O)c2n[nH]c3c2CCC(c2ccccc2)C3)COc2ccccc21 (stereo partly drawn) [Example 12, N-(5-methyl-4-oxo-2,3,4,5-tetrahydrobenzo[b][1,4]oxazepin-3-yl)-6-phenyl-4,5,6,7-tetrahydro-1H-indazole-3-carboxamide]",< 5.51
2,"C[C@H]1CCc2noc(C(=O)N[C@H]3COc4ccccc4N(C)C3=O)c2C1 [Example 69, (S)-5-methyl-N-((S)-5-methyl-4-oxo-2,3,4,5-tetrahydrobenzo[b][1,4]oxazepin-3-yl)-4,5,6,7-tetrahydrobenzo[c]isoxazole-3-carboxamide]",7.07

# Same assay, conditions: Table 5; apparent Ki (Morrison tight-binding fit); 50 nM RIP1 kinase domain, 50 uM ATP, 2 hours incubation; read-out: Ki
row,pKi,SMILES
1,7.89,"Cc1cc2n(n1)CC[C@H](NC(=O)c1cc3c(-c4ccccc4)cccn3n1)C(=O)N2C [Example 714, (S)—N-(2,4-dimethyl-5-oxo-5,6,7,8-tetrahydro-4H-pyrazolo[1,5-a][1,3]diazepin-6-yl)-4-phenylpyrazolo[1,5-a]pyridine-2-carboxamide]"
2,6.51,"CN1C(=O)[C@@H](NC(=O)c2nc3n(n2)CCNC3C(F)(F)F)COc2ccccc21 (stereo partly drawn) [Example 787, N-[(3S)-5-methyl-4-oxo-2,3-dihydro-1,5-benzoxazepin-3-yl]-8-(trifluoromethyl)-5,6,7,8-tetrahydro-[1,2,4]triazolo [1,5-a]pyrazine-2-carboxamide]"
3,8.40,"CN1C(=O)[C@@H](NC(=O)c2cc3c(-c4ccccc4F)cccn3n2)COc2ccccc21 [Example 708, 4-(2-fluorophenyl)-N-[(3S)-5-methyl-4-oxo-2,3-dihydro-1,5-benzoxazepin-3-yl]pyrazolo[1,5-a]pyridine-2-carboxamide]"

# Same assay, conditions: human RIP1 kinase domain (2-375), 50 uM ATP, 2 hours incubation, Transcreener ADP assay; read-out: RIP1 Ki
row,pKi,SMILES
1,6.08,"CCn1nc(C(=O)N[C@H]2COc3ccccc3N(C)C2=O)c2c1CC[C@H](C(F)(F)F)C2 (single isomer, unassigned) [Example 185]"
2,7.70,"Cc1cnn2c1N(C)C(=O)[C@@H](NC(=O)c1ncn(Cc3ccccc3)n1)CC2 [Example 166, (S)-1-benzyl-N-(3,4-dimethyl-5-oxo-5,6,7,8-tetrahydro-4H-pyrazolo[1,5-a][1,3]diazepin-6-yl)-1H-1,2,4-triazole-3-carboxamide]"
3,7.50,"CN1C(=O)[C@@H](NC(=O)c2ncn(Cc3ccc(F)c(F)c3)n2)CCn2nc(C3CC3)cc21 [Example 223, (S)—N-(2-cyclopropyl-4-methyl-5-oxo-5,6,7,8-tetrahydro-4H-pyrazolo[1,5-a][1,3]diazepin-6-yl)-1-(3,4-difluorobenzyl)-1H-1,2,4-triazole-3-carboxamide]"

# Same assay, conditions: human RIP1 kinase domain (2-375), Transcreener ADP assay, 50 uM ATP, 2 hours incubation; read-out: RIP1 Ki
row,pKi,SMILES
1,5.42,"Cc1cc2n(n1)CC[C@@H](NC(=O)c1nnc(Cc3ccc(F)cc3)[nH]1)C(=O)N2C [Example 329, (R)—N-(2,4-dimethyl-5-oxo-5,6,7,8-tetrahydro-4H-pyrazolo[1,5-a][1,3]diazepin-6-yl)-5-(4-fluorobenzyl)-4H-1,2,4-triazole-3-carboxamide]"
2,7.40,"Cc1nn2c(c1C)N(C)C(=O)[C@@H](NC(=O)c1ncn(Cc3ccccc3)n1)CC2 [Example 274, (S)-1-benzyl-N-(2,3,4-trimethyl-5-oxo-5,6,7,8-tetrahydro-4H-pyrazolo[1,5-a][1,3]diazepin-6-yl)-1H-1,2,4-triazole-3-carboxamide]"
3,6.66,"CN1C(=O)[C@@H](NC(=O)c2nnc(Cc3ccccc3)[nH]2)CCn2nc(C3CC3(F)F)cc21 (stereo partly drawn) [Example 285, 5-benzyl-N-((6S)-2-(2,2-difluorocyclopropyl)-4-methyl-5-oxo-5,6,7,8-tetrahydro-4H-pyrazolo[1,5-a][1,3]diazepin-6-yl)-4H-1,2,4-triazole-3-carboxamide]"
4,8.07,"CN1C(=O)[C@@H](NC(=O)c2ncn(Cc3ccc(Cl)cc3Cl)n2)CCn2nc(C3CC3)cc21 [Example 307, (S)—N-(2-cyclopropyl-4-methyl-5-oxo-5,6,7,8-tetrahydro-4H-pyrazolo[1,5-a][1,3]diazepin-6-yl)-1-(2,4-dichlorobenzyl)-1H-1,2,4-triazole-3-carboxamide]"

# Same assay, conditions: tight-binding apparent inhibition constant; human RIP1 kinase domain (2-375) 50 nM, 50 uM ATP, 2 hours; read-out: Ki
row,pKi,SMILES
1,7.05,"CN1C(=O)[C@@H](NC(=O)c2ncc3c(n2)C2(CCOC2)OC3)COc2ccccc21 (stereo partly drawn) [Example 508, N-[(3S)-5-methyl-4-oxo-2,3-dihydro-1,5-benzoxazepin-3-yl]spiro[5H-furo[3,4-d]pyrimidine-7,3′-tetrahydrofuran]-2-carboxamide]"
2,7.79,"CN1C(=O)[C@H](NC(=O)c2ncn(Cc3ccccc3)n2)CCn2nc([C@@H]3CC3(F)F)cc21 (stereo in doubt) [Example 675, 1-benzyl-N-[rac-(6R)-4-methyl-5-oxo-2-[rac-(1S)-2,2-difluorocyclopropyl]-7,8-dihydro-6H-pyrazolo[1,5-a] [1,3]diazepin-6-yl]-1,2,4-triazole-3-carcoxamide]"
3,6.54,CN1C(=O)[C@@H](NC(=O)c2ncn(CC3CCCCO3)n2)CCn2nc(C3CC3)cc21 (stereo partly drawn) [Example 477]
4,6.72,CN1C(=O)[C@@H](NC(=O)c2ncn(Cc3ccccn3)n2)CCn2nc(C3CC3)cc21 [Example 652]
5,7.36,"CN1C(=O)[C@@H](NC(=O)c2ncc3c(n2)[C@](C)(CC(F)(F)F)OC3)COc2ccccc21 (racemic) [Example 688, rac-(7S)-7-methyl-N-[rac-(3 S)-5-methyl-4-oxo-2,3-dihydro-1,5-benzoxazepin-3-yl]-7-(2,2,2-trifluoroethyl)-5H-furo[3,4-d]pyrimidine-2-carboxamide]"
6,8.06,"CN1C(=O)[C@@H](NC(=O)c2nc3n(n2)CCCC3c2ccccc2)COc2ccccc21 (stereo partly drawn) [Example 553, 8-phenyl-N-[(3S)-5-methyl-4-oxo-2,3-dihydro-1,5-benzoxazepin-3-yl]-5,6,7,8-tetrahydro-[1,2,4]triazolo[1,5-a]pyridine-2-carboxamide]"
7,7.63,"CN1C(=O)[C@@H](NC(=O)c2ncn(Cc3ccc(F)cc3)n2)CCn2nc(C3CC3)cc21 (stereo in doubt) [Example 681, 1-[(4-fluorophenyl)methyl]-N-[rac-(6S)-2-cyclopropyl-4-methyl-5-oxo-7,8-dihydro-6H-pyrazolo[1,5-a][1,3]diazepin-6-yl]-1,2,4-triazole-3-carboxamide]"
8,5.59,CN1C(=O)[C@@H](NC(=O)c2ncn(CC3CCOC3)n2)CCn2nc(C3CC3)cc21 (stereo partly drawn) [Example 480]
9,6.76,"CC(C)C1CCc2nc(C(=O)N[C@H]3CCn4nccc4N(C)C3=O)nn21 (stereo partly drawn) [Example 346, 5-isopropyl-N-[(6S)-4-methyl-5-oxo-7,8-dihydro-6H-pyrazolo[1,5-a][1,3]diazepin-6-yl]-6,7-dihydro-5H-pyrrolo[1,2-b][1,2,4]triazole-2-carboxamide]"
10,6.33,"CN1C(=O)[C@@H](NC(=O)c2nc3n(n2)[C@@H](C(F)(F)F)CCC3)COc2ccccc21 (single isomer, unassigned) [Example 425]"
11,7.76,"CC(=O)c1cc2n(n1)CC[C@H](NC(=O)c1ncn(Cc3ccccc3)n1)C(=O)N2C [Example 366, (S)—N-(2-acetyl-4-methyl-5-oxo-5,6,7,8-tetrahydro-4H-pyrazolo[1,5-a][1,3]diazepin-6-yl)-1-benzyl-1H-1,2,4-triazole-3-carboxamide]"
12,7.03,"CN1C(=O)[C@@H](NC(=O)c2cc3c(cn2)COC32CCCOC2)COc2ccccc21 (stereo partly drawn) [Example 489, N-[(3S)-5-methyl-4-oxo-2,3-dihydro-1,5-benzoxazepin-3-yl]spiro[3H-furo[3,4-c]pyridine-1,3′-tetrahydropyran]-6-carboxamide]"
